According to publication PMC6980832, “Crystal structures of Triosephosphate Isomerases from Taenia solium and Schistosoma mansoni provide insights for vaccine rationale and drug design against helminth parasites” (PLoS Neglected Tropical Diseases, 2020):

Tests used:
[1] = biological target: T1, SmTPI (Schistosoma mansoni, UniProt P48501); assay: X-ray crystal structure of the complex; type: binding; conditions: co-crystallised with 10 mM 2-PGA; active site, closed loop 6; 2.3 Å; bound in all 8 monomers
T1 construct: gene TPI; full length, codon-optimised synthetic gene, E. coli tpi-null strain, modified pET19; extra Gly-Pro-His before Met1; homodimer about 50 kDa

[2] = biological target: T2, TsTPI (Taenia solium, UniProt Q9GTX8); assay: X-ray crystal structure of the complex; type: binding; conditions: co-crystallised with 10 mM 2-PGA; active site, closed loop 6; 2.1 Å
T2 construct: full length, codon-optimised synthetic gene, E. coli tpi-null strain, modified pET19; extra Gly-Pro-His before Met1; homodimer
T2 sequence (Q9GTX8 whole entry): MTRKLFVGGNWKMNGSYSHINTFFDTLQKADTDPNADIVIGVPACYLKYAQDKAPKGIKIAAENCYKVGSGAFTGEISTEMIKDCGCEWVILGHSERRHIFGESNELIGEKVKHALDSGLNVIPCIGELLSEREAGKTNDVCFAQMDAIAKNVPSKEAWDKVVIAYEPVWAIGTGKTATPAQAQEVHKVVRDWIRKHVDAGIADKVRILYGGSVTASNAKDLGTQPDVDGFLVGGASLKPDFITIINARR

T1 sequence (P48501 whole entry): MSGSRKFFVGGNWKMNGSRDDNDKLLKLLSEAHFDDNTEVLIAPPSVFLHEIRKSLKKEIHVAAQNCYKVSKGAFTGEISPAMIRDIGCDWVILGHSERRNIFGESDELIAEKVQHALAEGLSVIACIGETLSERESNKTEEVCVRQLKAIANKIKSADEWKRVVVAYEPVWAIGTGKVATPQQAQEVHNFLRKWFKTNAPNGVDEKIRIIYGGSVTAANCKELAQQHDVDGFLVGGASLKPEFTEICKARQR

## O=C(O)[C@@H](CO)OP(=O)(O)O [2-PGA, 2-phosphoglyceric acid]
[1]
  X-ray crystal structure of the complex: We solved the crystal structures of TsTPI and SmTPI in complex with the inhibitor 2-PGA
[2]
  X-ray crystal structure of the complex: We solved the crystal structures of TsTPI and SmTPI in complex with the inhibitor 2-PGA
